Measurements taken from patent US20190256827A1, “EPIGENOME EDITING SYSTEMS AND METHODS” (STC.UNM, priority 2017, published 2019).

How the values were obtained:
[1] = test system: IL1RN mRNA in HEK293T cells; experiment: qPCR of IL1RN mRNA levels (dCas9-PYL-HA, FLAG-ABI-P300, sgRNAs); type: cell-based, human
Description: To study how IL1RN expression levels change, total RNAs from the cell lysates generated in the above experiment were purified and then subjected to qPCR analysis to quantify mRNA levels.
Human embryonic kidney cell HEK293T (American Type Culture Collection, Manassas, Va.) was cultured in Dulbecco's modified Eagle's medium (DMEM) (Gibco) with 10% FBS (Atlanta Biologicals), 1× GlutaMax (Gibco, Thermo Fisher Scientific, Inc., Waltham, Mass.), and 1× penicillin/streptomycin (Pen/Strep; Gibco, Thermo Fisher Scientific, Inc., Waltham, Mass.). Cells (100,000/ml) were plated in 24-well or 10-cm cell culture plate the day before transfection. For each well of 24-well plate transfection, 500 ng of dCas9-PYL-HA, 420 ng of FLAG-ABI-P300, and a total amount of 200-ng mix of gRNAs, with a 50-ng per each gRNA, were mixed with 50×(v/w) Opti-MEM (Gibco, Thermo Fisher Scientific, Inc., Waltham, Mass.), then incubate with the same volume of 3 μg PEI-Opti-MEM solution for 20 minutes at room temperature. Then, 100 μL of PEI-combined plasmids were added to every single well of 24-well plate and cultured for 24 hours before experiments were performed. For a 10 cm plate, 1 mL of PEI-combined plasmids were needed. After six hours transfection, cells were washed and incubated for another 1-72 hours before experiments were performed.
Total RNA was extracted using the EZNA Total RNA Kit I (Omega Bio-tek, Inc., Norcross, Ga.). qPCR reactions were performed on cDNA prepared from 1,000 ng of total cellular RNA using the High-Capacity cDNA Reverse Transcription Kit (Applied Biosystems Co., Thermo Fisher Scientific, Inc., Foster City, Calif.). TaqMan qPCR probes (Thermo Fisher Scientific, Inc., Waltham, Mass. IL1RN, Hs00893626; GRM2, Hs00968358; HBA, Hs00361191; MYOD1 Hs02330075; GAPDH, Hs99999905) and Fast Advanced Master Mix (Life Technologies Co., Co., Thermo Fisher Scientific, Inc., Carlsbad, Calif.) were used in multiplexed reactions and 384-well format in a 7900HT Fast Real-Time PCR System (Applied Biosystems Co., Thermo Fisher Scientific, Inc., Foster City, Calif.). All measurements were performed at least in triplicate. Data were analyzed using the SDS software, version 2.4 (Applied Biosystems Co., Thermo Fisher Scientific, Inc., Foster City, Calif.), by the ΔΔCt method: the Ct values of target gene were normalized to Ct values of GAPDH, the folds of target gene expression changes were normalized to experimental controls. Analyzed data are reported as the mean±s.e.m. for biological replicates. In ChIP assays, the Ct values of antibodies pulled down segments were normalized to the Ct values of 10% input.

[2] = test system: luciferase reporter gene (fos-Luc) in CHO cells; experiment: ABA-induced luciferase expression using integrated CRISPR/CIP (PYL-VP80 / dCas9-NLS-ABI, fos-Luc reporter, sgRNAs); type: cell-based; conditions: CHO cells transfected for 24 hours; ABA 100 μM for 16 hours
Excerpt: In one exemplary embodiment, ABA-induced ABI-PYL dimerization recruited a transcriptional activator to a DNA sequence targeted by sgRNAs and dCas9, and turn on the expression of a reporter gene. Several DNA plasmids were constructed for this purpose, including: (i) a DNA plasmid (PYL-VP80-ires-dCas9-NLS-ABI) encoding the transcriptional activator VP80 fused to PYL (PYL-VP80) and dCas9 with a nuclear localization signal (NLS) fused to ABI (dCas9-NLS-ABI); (ii) a luciferase reporter gene (fos-Luc) that contains the fos minimal promoter to give minimal background expression; and (iii) several sgRNA expression constructs to target the upstream region (within 1.5 kb) of the luciferase gene. […] Also, specific combinations of multiple sgRNAs increased the induced expression level. In other applications, the fold induction can be improved by optimizing the targeting region of sgRNAs, the combination of different sgRNAs, and/or the framework of fusion proteins, which may lead to a better positioning of the recruited transcription machinery relative to the transcription start site. […] Since histone posttranslational modifications are generally present in an expanded region instead of a specific location (e.g., a transcription start site), the precise positioning may not be as critical for epigenome editing.

[3] = test system: MYOD1 locus in HEK293T cells; experiment: ChIP-qPCR of FLAG-ABI-P300 and H3K27Ac at the MYOD1 locus; type: cell-based, human; conditions: MYOD1 sgRNAs; ABA treatment for 48 hours
[4] = test system: MYOD1 mRNA in HEK293T cells; experiment: qPCR of MYOD1 mRNA levels; type: cell-based, human; conditions: MYOD1 sgRNAs; ABA vs DMSO
Description: (§1) To determine if the new method can be used to modify H3K27Ac at other gene loci, sgRNAs were designed that target the promoter region of other genes with low expression levels in HEK293T cells, including GRM2, HBA and MYOD1 (Table 1).
(§2) Human embryonic kidney cell HEK293T (American Type Culture Collection, Manassas, Va.) was cultured in Dulbecco's modified Eagle's medium (DMEM) (Gibco) with 10% FBS (Atlanta Biologicals), 1× GlutaMax (Gibco, Thermo Fisher Scientific, Inc., Waltham, Mass.), and 1× penicillin/streptomycin (Pen/Strep; Gibco, Thermo Fisher Scientific, Inc., Waltham, Mass.). Cells (100,000/ml) were plated in 24-well or 10-cm cell culture plate the day before transfection. […]
(§3) Total RNA was extracted using the EZNA Total RNA Kit I (Omega Bio-tek, Inc., Norcross, Ga.). qPCR reactions were performed on cDNA prepared from 1,000 ng of total cellular RNA using the High-Capacity cDNA Reverse Transcription Kit (Applied Biosystems Co., Thermo Fisher Scientific, Inc., Foster City, Calif.). […] Data were analyzed using the SDS software, version 2.4 (Applied Biosystems Co., Thermo Fisher Scientific, Inc., Foster City, Calif.), by the ΔΔCt method: the Ct values of target gene were normalized to Ct values of GAPDH, the folds of target gene expression changes were normalized to experimental controls. Analyzed data are reported as the mean±s.e.m. for biological replicates. […]

[5] = test system: HBA mRNA in HEK293T cells; experiment: qPCR of HBA mRNA levels; type: cell-based, human; conditions: HBA sgRNAs; ABA vs DMSO
Description: as §1, §2, §3

[6] = test system: six off-target genes (RHOC, IRF2BP2, TFAM, HSD3B7, METTL2A, CEP250) in HEK293T cells; experiment: qPCR of mRNA levels of six off-target genes with IL1RN sgRNAs; type: cell-based, human; conditions: 100 μM ABA for 24 hours vs DMSO
Description: FIG. 11. Expression of six off-target genes when induced by ABA using sgRNAs designed for IL1RN. dCas9-PYL-HA, FLAG-ABI-P300 and IL1RN sgRNAs were transfected into HEK293T cells for 24 hours. Cells were then treated with 100 μM of ABA for another 24 hours followed by the analysis of mRNA levels of six off-target genes using q-PCR. The fold changes were calculated by comparing ABA treated cells to cells treated with DMSO. Error bars represent ±s.e.m. from biological replicates (n=6).
It is known that sgRNA/Cas9 can bind to unintended loci, which can lead to off-target effects. To examine if aberrant binding interferes with the interpretation of results, all reported sites in the genome that could potentially be targeted by the IL1RN sgRNAs used in the studies were checked. Changes in the mRNA levels of six genes having TSS close to the off-target sites were monitored (Table 3) after cells were co-transfected with IL1RN sgRNAs, dCas9-PYL-HA and FLAG-ABI-P300 plasmids followed by ABA treatment for 24 hours.
Total RNA was extracted using the EZNA Total RNA Kit I (Omega Bio-tek, Inc., Norcross, Ga.). qPCR reactions were performed on cDNA prepared from 1,000 ng of total cellular RNA using the High-Capacity cDNA Reverse Transcription Kit (Applied Biosystems Co., Thermo Fisher Scientific, Inc., Foster City, Calif.). […] Analyzed data are reported as the mean±s.e.m. for biological replicates. […]

CC1=CC(=O)CC(C)(C)[C@@]1(O)/C=C/C(C)=C\C(=O)O [ABA, abscisic acid]
IL1RN mRNA levels after washing ([1]; ABA for 12, 24 or 48 hours, then washed): well correlated with the changes in H3K27Ac levels
IL1RN mRNA level with P300 mutant (D1399Y) lacking acetyltransferase activity ([1]; FLAG-ABI-P300 D1399Y, 100 μM ABA for 24 hours): did not increase
IL1RN mRNA level ([1]; cells transfected with ABI-P300, dCas9-PYL and IL1RN sgRNAs, treated with ABA (100 μM, 24 hours)): IL1RN mRNA level increases
IL1RN mRNA when sgRNAs designed for GRM2, HBA or MYOD1 were used ([1]; sgRNAs for GRM2, HBA or MYOD1 in place of IL1RN, 24-hour ABA treatment): no increase in IL1RN mRNA was observed
time at which the IL1RN mRNA level increases ([1]; time course after ABA addition): four hours after ABA addition
time until which IL1RN mRNA continues to increase rapidly ([1]; time course after ABA addition): about 24 hours
luciferase expression [2]: luciferase expression was induced
enrichment of FLAG-ABI-P300 at the MYOD1 locus [3]: causes the enrichment
enrichment of H3K27Ac at the MYOD1 locus [3]: causes the enrichment
level of MYOD1 mRNA [4]: increases correspondingly
level of HBA mRNA [5]: increases correspondingly
mRNA levels of six off-target genes [6]: None of the six genes display increases in mRNA levels
